Active and inactive are the calls of the source. The calls are words filed in the database; no cut-off is given here.
Tests used:
[1] = target: T1, D-alanine--D-alanine ligase (Enterococcus faecalis (strain ATCC 700802 / V583)) (UniProt Q47758); assay: Inhibition of Enterococcus faecalis JH2-2 C-terminal 6His-tagged DdlB expressed in Escherichia coli LMG194 at 10 uM preincubated for 30 mins followed by substrate addition and measured after 20 mins by Biomol Green reagent assay relative to control
T1 sequence (whole entry): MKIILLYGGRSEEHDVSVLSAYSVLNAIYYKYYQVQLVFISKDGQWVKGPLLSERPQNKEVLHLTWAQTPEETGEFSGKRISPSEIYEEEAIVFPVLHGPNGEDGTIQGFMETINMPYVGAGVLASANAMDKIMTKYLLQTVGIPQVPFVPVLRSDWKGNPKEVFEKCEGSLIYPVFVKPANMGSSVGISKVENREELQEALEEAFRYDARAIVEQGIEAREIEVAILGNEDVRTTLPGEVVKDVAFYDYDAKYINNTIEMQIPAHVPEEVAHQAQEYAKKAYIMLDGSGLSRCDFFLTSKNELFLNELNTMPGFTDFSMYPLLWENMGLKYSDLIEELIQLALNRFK

[2] = system: Staphylococcus aureus; assay: Inhibition of Ddl in Staphylococcus aureus ATCC 25923 assessed as increase in [D-Ala]/[D-Ala-D-Ala] ratio at 2 times MIC after 30 mins by LC-MS/MS analysis
[3] = target: 5-hydroxytryptamine receptor 1A (Homo sapiens) (UniProt P08908); assay: Displacement of [3H]8-OH-DPAT from recombinant human 5-HT1A receptor at 10 uM after 60 mins by scintillation counting analysis relative to control
[4] = target: Angiotensin-converting enzyme (Homo sapiens) (UniProt P12821); assay: Inhibition of human recombinant ACE at 10 uM using Abz-FRK(Dnp)-P-OH as substrate after 30 mins by fluorimetric analysis relative to control
Sequence of Angiotensin-converting enzyme (Homo sapiens) (P12821 whole entry): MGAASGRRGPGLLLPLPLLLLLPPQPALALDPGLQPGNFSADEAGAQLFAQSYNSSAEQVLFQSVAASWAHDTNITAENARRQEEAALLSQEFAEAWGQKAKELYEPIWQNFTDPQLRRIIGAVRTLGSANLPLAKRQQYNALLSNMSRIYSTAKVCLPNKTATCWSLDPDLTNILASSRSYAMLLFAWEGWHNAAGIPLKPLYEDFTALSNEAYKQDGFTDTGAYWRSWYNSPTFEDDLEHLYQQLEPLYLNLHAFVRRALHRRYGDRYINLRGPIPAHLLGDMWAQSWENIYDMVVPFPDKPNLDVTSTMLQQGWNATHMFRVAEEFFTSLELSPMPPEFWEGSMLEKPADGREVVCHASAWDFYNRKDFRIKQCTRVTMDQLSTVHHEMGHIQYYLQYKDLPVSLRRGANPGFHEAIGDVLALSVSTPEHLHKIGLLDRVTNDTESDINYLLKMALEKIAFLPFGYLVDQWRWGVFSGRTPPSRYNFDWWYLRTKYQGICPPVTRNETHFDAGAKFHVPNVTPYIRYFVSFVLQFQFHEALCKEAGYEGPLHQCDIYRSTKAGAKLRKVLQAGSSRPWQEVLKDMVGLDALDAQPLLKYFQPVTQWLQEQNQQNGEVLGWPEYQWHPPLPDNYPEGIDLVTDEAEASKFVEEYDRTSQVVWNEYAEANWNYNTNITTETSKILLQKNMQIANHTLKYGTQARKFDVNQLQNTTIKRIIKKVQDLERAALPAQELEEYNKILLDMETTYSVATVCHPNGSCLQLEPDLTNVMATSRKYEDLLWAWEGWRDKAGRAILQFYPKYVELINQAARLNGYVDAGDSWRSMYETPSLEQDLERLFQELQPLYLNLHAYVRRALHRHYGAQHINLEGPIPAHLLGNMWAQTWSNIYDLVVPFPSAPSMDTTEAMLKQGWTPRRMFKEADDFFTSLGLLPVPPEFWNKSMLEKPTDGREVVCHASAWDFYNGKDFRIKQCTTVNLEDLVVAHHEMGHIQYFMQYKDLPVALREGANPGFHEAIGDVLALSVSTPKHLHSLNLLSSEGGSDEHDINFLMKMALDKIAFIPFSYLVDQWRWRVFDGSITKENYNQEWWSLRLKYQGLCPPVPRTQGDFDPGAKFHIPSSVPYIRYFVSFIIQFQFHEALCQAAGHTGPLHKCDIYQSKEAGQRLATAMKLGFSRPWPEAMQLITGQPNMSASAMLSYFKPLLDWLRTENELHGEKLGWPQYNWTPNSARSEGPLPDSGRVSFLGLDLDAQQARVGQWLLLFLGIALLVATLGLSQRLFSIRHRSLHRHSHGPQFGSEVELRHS

[5] = target: Acetylcholinesterase (Homo sapiens) (UniProt P22303); assay: Inhibition of human recombinant acetylcholinesterase at 10 uM using acetylthiocholine as substrate after 30 mins by spectrophotometric analysis relative to control
[6] = target: Arginase-1 (Homo sapiens) (UniProt P05089); assay: Inhibition of human recombinant Arg1 at 10 uM using L-arginine as substrate after 5 mins in presence of [guanidino-14C]-L-arginine by liquid scintillation counting analysis relative to control
[7] = system: Bacillus cereus; assay: Inhibition of Bacillus cereus beta-lactamase at 10 uM using nitrocefin as substrate preincubated for 15 mins followed by substrate addition and measured after 60 mins by spectrophotometric analysis relative to control
[8] = target: Carbonic anhydrase 2 (Homo sapiens) (UniProt P00918); assay: Inhibition of human carbonic anhydrase 2 at 10 uM using 4-nitrophenyl acetate as substrate after 20 mins by spectrophotometric analysis relative to control
[9] = target: Cannabinoid receptor 1 (Homo sapiens) (UniProt P21554); assay: Displacement of [3H]CP 55940 from human recombinant CB1 receptor at 10 uM after 120 mins by scintillation counting analysis relative to control
Sequence of Cannabinoid receptor 1 (Homo sapiens) (P21554 whole entry): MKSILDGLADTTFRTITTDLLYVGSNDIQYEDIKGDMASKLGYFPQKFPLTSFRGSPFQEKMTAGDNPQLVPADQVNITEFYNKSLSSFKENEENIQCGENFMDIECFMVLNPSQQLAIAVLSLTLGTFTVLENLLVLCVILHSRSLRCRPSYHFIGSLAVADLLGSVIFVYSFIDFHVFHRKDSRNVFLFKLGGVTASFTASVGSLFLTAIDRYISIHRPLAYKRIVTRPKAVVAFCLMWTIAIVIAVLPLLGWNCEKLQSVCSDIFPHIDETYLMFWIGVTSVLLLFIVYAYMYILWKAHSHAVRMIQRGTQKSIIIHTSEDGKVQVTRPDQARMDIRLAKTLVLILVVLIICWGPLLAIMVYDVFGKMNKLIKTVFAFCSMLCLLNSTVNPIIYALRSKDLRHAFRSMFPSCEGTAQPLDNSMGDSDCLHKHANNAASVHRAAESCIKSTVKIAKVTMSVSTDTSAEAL

[10] = target: Prostaglandin G/H synthase 1 (Homo sapiens) (UniProt P23219); assay: Inhibition of human recombinant COX1 at 10 uM using arachidonic acid as substrate after 3 mins by fluorimetric analysis relative to control
[11] = target: DNA gyrase (Staphylococcus aureus) (UniProt P0A0K8+P20831); assay: Inhibition of Staphylococcus aureus DNA gyrase at 10 uM using supercoiled pBR322 DNA as substrate after 1 hr by ethidium bromide staining-based agarose gel electrophoresis relative to control; type: protein-complex assay
Sequence of DNA gyrase (Staphylococcus aureus) (P0A0K8 2-644 limits assumed): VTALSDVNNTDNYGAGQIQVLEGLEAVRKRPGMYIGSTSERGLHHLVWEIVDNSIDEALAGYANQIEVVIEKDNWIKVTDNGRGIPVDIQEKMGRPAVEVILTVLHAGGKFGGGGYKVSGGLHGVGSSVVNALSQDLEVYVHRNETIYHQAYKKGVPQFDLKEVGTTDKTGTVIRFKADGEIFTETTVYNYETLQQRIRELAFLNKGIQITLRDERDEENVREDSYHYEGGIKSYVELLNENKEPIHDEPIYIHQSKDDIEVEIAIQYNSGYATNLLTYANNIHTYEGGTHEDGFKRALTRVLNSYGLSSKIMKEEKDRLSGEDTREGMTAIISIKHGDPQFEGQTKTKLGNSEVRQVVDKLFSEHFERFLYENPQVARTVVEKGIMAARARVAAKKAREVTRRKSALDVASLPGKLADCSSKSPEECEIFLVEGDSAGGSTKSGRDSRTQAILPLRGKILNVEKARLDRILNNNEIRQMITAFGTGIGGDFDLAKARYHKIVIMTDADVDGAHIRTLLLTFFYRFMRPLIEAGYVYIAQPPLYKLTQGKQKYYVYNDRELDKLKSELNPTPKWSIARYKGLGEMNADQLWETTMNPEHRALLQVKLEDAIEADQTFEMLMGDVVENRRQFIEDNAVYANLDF
Sequence of DNA gyrase (Staphylococcus aureus) (P20831 whole entry partner): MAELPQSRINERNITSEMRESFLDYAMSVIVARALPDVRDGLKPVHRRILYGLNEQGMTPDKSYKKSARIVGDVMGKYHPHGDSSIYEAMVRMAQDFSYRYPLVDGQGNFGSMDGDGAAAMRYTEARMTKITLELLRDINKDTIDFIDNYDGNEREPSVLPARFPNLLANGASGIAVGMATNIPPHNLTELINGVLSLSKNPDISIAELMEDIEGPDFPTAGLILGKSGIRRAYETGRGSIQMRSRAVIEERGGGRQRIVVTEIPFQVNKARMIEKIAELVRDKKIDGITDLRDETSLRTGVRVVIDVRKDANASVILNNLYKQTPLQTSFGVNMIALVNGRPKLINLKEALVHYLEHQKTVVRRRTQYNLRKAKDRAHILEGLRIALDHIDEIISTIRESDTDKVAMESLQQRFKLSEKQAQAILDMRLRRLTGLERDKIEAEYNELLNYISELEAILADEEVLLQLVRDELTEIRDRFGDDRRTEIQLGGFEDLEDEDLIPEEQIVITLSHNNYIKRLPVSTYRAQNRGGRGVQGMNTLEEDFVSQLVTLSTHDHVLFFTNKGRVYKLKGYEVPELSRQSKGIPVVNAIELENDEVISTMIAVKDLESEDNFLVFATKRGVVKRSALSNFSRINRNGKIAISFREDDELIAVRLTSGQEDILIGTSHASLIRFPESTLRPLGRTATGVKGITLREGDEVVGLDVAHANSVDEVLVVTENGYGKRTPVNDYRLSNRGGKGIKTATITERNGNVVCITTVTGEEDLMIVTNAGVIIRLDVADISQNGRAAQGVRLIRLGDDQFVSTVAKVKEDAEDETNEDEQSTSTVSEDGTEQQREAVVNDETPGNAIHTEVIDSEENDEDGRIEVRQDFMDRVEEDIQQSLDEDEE

[12] = target: DNA gyrase (Escherichia coli) (UniProt P0AES6+P0AES4); assay: Inhibition of Escherichia coli DNA gyrase at 10 uM using supercoiled pBR322 DNA as substrate after 1 hr by ethidium bromide staining-based agarose gel electrophoresis relative to control; type: protein-complex assay
[13] = target: Tyrosine-protein kinase Lck (Homo sapiens) (UniProt P06239); assay: Inhibition of human recombinant Lck at 10 uM using Ulight-Poly GAT[EAY(1:1:1)]n as substrate after 10 mins by LANCE analysis relative to control
Sequence of Tyrosine-protein kinase Lck (Homo sapiens) (P06239 2-509 limits assumed): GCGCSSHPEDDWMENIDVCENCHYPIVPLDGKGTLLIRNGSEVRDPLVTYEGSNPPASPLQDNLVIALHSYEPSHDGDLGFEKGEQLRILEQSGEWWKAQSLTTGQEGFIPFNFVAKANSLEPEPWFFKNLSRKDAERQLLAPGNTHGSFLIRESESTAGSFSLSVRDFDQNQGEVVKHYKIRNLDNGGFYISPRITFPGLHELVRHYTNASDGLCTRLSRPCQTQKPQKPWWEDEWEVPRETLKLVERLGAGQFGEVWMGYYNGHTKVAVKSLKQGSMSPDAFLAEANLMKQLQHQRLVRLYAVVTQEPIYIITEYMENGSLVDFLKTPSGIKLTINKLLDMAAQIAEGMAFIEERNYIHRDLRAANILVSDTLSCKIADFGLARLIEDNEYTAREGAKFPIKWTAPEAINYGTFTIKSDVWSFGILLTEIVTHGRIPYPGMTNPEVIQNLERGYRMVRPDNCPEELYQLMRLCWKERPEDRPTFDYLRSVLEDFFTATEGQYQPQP

[14] = target: Muscarinic acetylcholine receptor M1 (Homo sapiens) (UniProt P11229); assay: Displacement of […] from human recombinant M1 receptor at 10 uM after 60 mins by scintillation counting analysis relative to control
Sequence of Muscarinic acetylcholine receptor M1 (Homo sapiens) (P11229 whole entry, the tested form may be a part): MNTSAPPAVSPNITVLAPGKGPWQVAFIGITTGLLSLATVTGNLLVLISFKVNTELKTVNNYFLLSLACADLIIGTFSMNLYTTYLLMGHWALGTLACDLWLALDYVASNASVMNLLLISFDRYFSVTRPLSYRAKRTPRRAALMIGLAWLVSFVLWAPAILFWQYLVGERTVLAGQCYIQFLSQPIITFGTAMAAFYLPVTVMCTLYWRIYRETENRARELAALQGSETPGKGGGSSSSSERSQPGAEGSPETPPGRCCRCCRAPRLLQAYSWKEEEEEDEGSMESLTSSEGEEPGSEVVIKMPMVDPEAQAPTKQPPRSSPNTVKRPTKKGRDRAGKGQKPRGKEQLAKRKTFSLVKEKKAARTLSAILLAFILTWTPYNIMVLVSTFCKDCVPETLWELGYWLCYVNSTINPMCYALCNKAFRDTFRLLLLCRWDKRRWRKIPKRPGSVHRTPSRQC

[15] = target: D-3-phosphoglycerate dehydrogenase (Homo sapiens) (UniProt O43175); assay: Inhibition of human recombinant C-terminal His-tagged PHGDH (1 to 533 residues) expressed in Escherichia coli at 10 uM using 3-phosphoglycerate as substrate relative to control
Sequence of D-3-phosphoglycerate dehydrogenase (Homo sapiens) (O43175 whole entry, the tested form may be a part): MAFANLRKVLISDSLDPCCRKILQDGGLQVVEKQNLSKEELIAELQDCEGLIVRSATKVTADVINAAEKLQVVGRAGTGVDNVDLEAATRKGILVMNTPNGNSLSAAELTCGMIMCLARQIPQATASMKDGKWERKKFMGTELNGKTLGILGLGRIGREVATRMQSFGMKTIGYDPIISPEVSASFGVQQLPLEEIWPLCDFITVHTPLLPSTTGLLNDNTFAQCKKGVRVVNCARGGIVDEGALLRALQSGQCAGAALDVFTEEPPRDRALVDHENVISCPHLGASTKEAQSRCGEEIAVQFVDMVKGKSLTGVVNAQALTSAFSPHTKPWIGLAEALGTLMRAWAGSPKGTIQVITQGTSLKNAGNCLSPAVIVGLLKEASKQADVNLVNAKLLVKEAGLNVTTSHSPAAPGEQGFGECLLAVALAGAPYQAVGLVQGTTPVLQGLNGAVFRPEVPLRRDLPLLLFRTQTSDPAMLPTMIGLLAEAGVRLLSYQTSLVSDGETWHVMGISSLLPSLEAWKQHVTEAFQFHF

[16] = target: Secretory phospholipase A2 (Homo sapiens) (UniProt Q5R387+Q9NZK7+P14555+Q9BZM2+Q9UNK4+P39877+O15496+P04054+Q9NZ20+Q9BZM1+Q9BX93); assay: Inhibition of human sPLA2 at 10 uM relative to control; type: protein assay
[17] = target: Peroxisome proliferator-activated receptor alpha (Homo sapiens) (UniProt Q07869); assay: Displacement of [3H]WY 14643 from human recombinant PPARalpha receptor at 10 uM at 10 uM after 120 mins by scintillation counting analysis relative to control
[18] = target: Topoisomerase IV (Staphylococcus aureus) (UniProt P0C1U9+P0C1S7); assay: Inhibition of Staphylococcus aureus DNA topoisomerase 4 at 10 uM using interlinked kDNA as substrate after 1 hr by ethidium bromide staining-based agarose gel electrophoresis relative to control; type: protein-complex assay
[19] = target: T1, D-alanine--D-alanine ligase (Enterococcus faecalis (strain ATCC 700802 / V583)); assay: Reversible inhibition of Enterococcus faecalis JH2-2 C-terminal 6His-tagged DdlB expressed in Escherichia coli LMG194 at 3 uM preincubated for 30 mins followed by 10 times dilution followed by 20 mins incubation with substrate by Biomol Green reagent assay
[20] = target: T1, D-alanine--D-alanine ligase (Enterococcus faecalis (strain ATCC 700802 / V583)); assay: Mixed non-competitive type inhibition of Enterococcus faecalis JH2-2 C-terminal 6His-tagged DdlB expressed in Escherichia coli LMG194 at 1 to 10 uM preincubated for 30 mins followed increasing substrate and fixed ATP addition and measured after 20 mins by Biomol Green reagent assay
[21] = system: Klebsiella pneumoniae; assay: Antibacterial activity against Klebsiella pneumoniae ATCC 700603 after 18 to 24 hrs by microdilution assay; type: functional, organism-based
[22] = system: Pseudomonas aeruginosa; assay: Antibacterial activity against Pseudomonas aeruginosa PAO1 after 18 to 24 hrs by microdilution assay; type: functional, organism-based
[23] = target: T1, D-alanine--D-alanine ligase (Enterococcus faecalis (strain ATCC 700802 / V583)); assay: Inhibition of Enterococcus faecalis JH2-2 C-terminal 6His-tagged DdlB expressed in Escherichia coli LMG194 assessed as Vmax/Km of D-Ala at 10 uM by Biomol Green reagent assay (reference value: 11.02 /min)
[24] = target: T1, D-alanine--D-alanine ligase (Enterococcus faecalis (strain ATCC 700802 / V583)); assay: Inhibition of Enterococcus faecalis JH2-2 C-terminal 6His-tagged DdlB expressed in Escherichia coli LMG194 assessed as Vmax/Km of ATP at 1 uM by Biomol Green reagent assay (reference value: 0.3 /min)
[25] = target: T1, D-alanine--D-alanine ligase (Enterococcus faecalis (strain ATCC 700802 / V583)); assay: Inhibition of Enterococcus faecalis JH2-2 C-terminal 6His-tagged DdlB expressed in Escherichia coli LMG194 assessed as Vmax/Km of ATP at 10 uM by Biomol Green reagent assay (reference value: 0.3 /min)

For `O=C(NNC(=S)Nc1ccc(Cl)c(Cl)c1)c1ccccc1O`, the inhibition [1] was greater than 30%, the inhibition [2] was “Active” and the inhibition [3] was less than 30%. The inhibition [4] was less than 30%, the inhibition [5] was less than 30% and the inhibition [6] was less than 30%. It also gave an inhibition [7] of less than 30%, an inhibition [8] of less than 30% and an inhibition [9] of less than 30%. The inhibition [10] was less than 30%, the inhibition [11] was less than 30% and the inhibition [12] was less than 30%. The inhibition [13] was less than 30%, the inhibition [14] was less than 30% and the inhibition [15] was less than 30%. For the same compound, the inhibition [16] was less than 30%, the inhibition [17] was less than 30% and the inhibition [18] was less than 30%. For the same compound, the inhibition [19] was “Active”, the inhibition [20] was “Active” and the MIC [21] was “inactive”. The MIC [22] was “inactive”, the Vmax/Km [23] was 4.69 min⁻¹ and the Vmax/Km [24] was 0.33 min⁻¹. It also gave a Vmax/Km [25] of 0.1 min⁻¹.

— ChEMBL document CHEMBL4382202, “1-(2-Hydroxybenzoyl)-thiosemicarbazides are promising antimicrobial agents targeting d-alanine-d-alanine ligase in bacterio” (Eur J Med Chem, 2018)
